Laboratory results as given in US20070053062A1, “Optical part and projection type display apparatus using same” (priority 2005, published 2007).

How the values were obtained:
mildews [1] = assay: Mildew proofness of lenses with anti-reflecting membrane containing mildew proofing agent, left to stand in thermo-hygrostat; assay type: cell-based; parameters: key: ∘: Growing of mildews was not recognized by visual inspection and inspection with a 5x magnifier.; Growing of mildews was not recognized by visual inspection, but recognized by inspection with a 5x magnifier.; xx: Growing of mildews was recognized by both the visual inspection and the inspection with a 5x magnifier; settings: acrylic resin lens, anti-reflecting membrane containing the agent; 1 week in thermo-hygrostat of 40° C. and 95% RH; visual inspection and 5× magnifier
Description: Anti-reflecting paints containing the mildew proofing agentwere prepared by mixing a silica sol solution as a binder (containing 2-propanol as a main solvent and 10% by weight of an alkoxysilane polymer) (2 parts by weight), a 5 wt % dispersion of silicon dioxide having an average length of major axis of about 60 nm as inorganic oxide particles (35 parts by weight), 2-propanol (100 parts by weight), and a 2 wt % 2-propanol solution of the mildew proofing agent (2 parts by weight). Here, 2-propanol was used as the solvent because most of the mildew proofing agents only partially dissolve in water.
Next, the same lens of acrylic resin as used in Example 1 as one of the optical parts of the present invention was cleaned in the same manner as in Example 1, and thereafter the lens was coated with the anti-reflecting paint containing the mildew proofing agent in place of the anti-reflecting paint used in Example 1, followed by heating the coat. In this case, the anti-reflecting paint was also coated on the back surface of the lens as in Example 1. Thus, a lens having an anti-reflecting membrane containing the mildew proofing agent was produced.
Next, in order to confirm whether these lenses had mildew proofness or not, these lenses were left to stand for 1 week in a thermo-hygrostat of 40° C. and 95% RH. For comparison, the lens having the anti-reflecting membrane containing no mildew proofing agent was also left to stand together. After 1 week, it was confirmed by visual inspection and inspection with a 5× magnifier whether mildews grew or not.

mildews [2] = assay: Mildew proofness of the lenses left to stand in thermo-hygrostat after dipping in hot water; assay type: cell-based; parameters: key to Growing of mildew: ∘: Growing of mildews was not recognized by visual inspection and inspection with a 5x magnifier.; Growing of mildews was not recognized by visual inspection, but recognized by inspection with a 5x magnifier.; xx: Growing of mildews was recognized by both the visual inspection and the inspection with a 5x magnifier; settings: lens dipped in hot water at 40° C. for 1 hour; for Growing of mildews (in words): then 1 week at 40° C. and 95% RH; for Growing of mildew: then 1 week in thermo-hygrostat of 40° C. and 95% RH, visual inspection and 5× magnifier
Description: Then, the lenses having the anti-reflecting membrane containing the mildew proofing agent were dipped in hot water at 40° C. for 1 hour and thereafter were left to stand for 1 week in a thermo-hygrostat of 40° C. and 95% RH. After lapse of 1 week, it was examined by visual inspection and inspection with a 5× magnifier whether mildews grew or not.
In compounds 13, 16, 18 and 20, the elemental proportion of nitrogen was 6% by weight or more.

Row | Compound | Growing of mildew (mildews [1]) | Growing of mildews (in words) (mildews [2]) | Growing of mildew (mildews [2])
1 | O=C(Nc1ccc(Cl)cc1)Oc1ccccc1 [Compound 29] | ∘ |  | 
2 | CCCCCCCC[n+]1ccccc1 [Compound 13] | ∘ | Growing of a few mildews was seen | x
3 | CC(C)(C)OC(=O)Nc1ccc(I)cc1 [Compound 28] | ∘ |  | 
4 | CCCCCC[n+]1ccccc1 [Compound 17] | ∘ |  | ∘
5 | CCCCCCCCCC[n+]1ccccc1 [Compound 14] | ∘ |  | ∘
6 | CCCC[n+]1ccccc1 [Compound 16] | ∘ | Growing of a few mildews was seen | x
7 | C[n+]1ccccc1 [Compound 18] | ∘ | Growing of a few mildews was seen | x
8 | CC(C)(C)OC(=O)Nc1ccc(Cl)cc1 [Compound 27] | ∘ |  | 
